Reference: patent publication US20260375165A1, “ENGINEERED HUMAN SERINE DEHYDRATASE ENZYMES AND METHODS FOR TREATING CANCER” (BOARD OF REGENTS, THE UNIVERSITY OF TEXAS SYSTEM, priority 2022, published 2026)
Substitutions are numbered along the chain they refer to.

Assays:
Format in all cases: biochemical
[1] = molecular target: T1, human serine dehydratase (hSDH, EC 4.3.1.17), wild type, SEQ ID NO: 1 (Homo sapiens, UniProt P20132); test: MBTH assay, kcat/Km of purified wild-type hSDH; conditions: role: substrate
T1 construct: hexahistidine (N); made in house; host or cells: E. coli BL21 (DE3), pET28a
T1 sequence (P20132 1-328): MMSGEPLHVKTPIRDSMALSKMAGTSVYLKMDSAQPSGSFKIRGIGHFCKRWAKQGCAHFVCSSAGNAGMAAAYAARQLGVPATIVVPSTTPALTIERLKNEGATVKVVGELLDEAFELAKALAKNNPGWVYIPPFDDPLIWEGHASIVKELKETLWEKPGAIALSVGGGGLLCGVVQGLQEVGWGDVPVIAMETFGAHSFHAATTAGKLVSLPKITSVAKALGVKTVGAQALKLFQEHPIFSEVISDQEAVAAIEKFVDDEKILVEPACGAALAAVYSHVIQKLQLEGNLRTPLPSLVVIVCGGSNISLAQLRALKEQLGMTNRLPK
Description: (§1) Human SDH variants were expressed and purified for subsequent biophysical characterization. In brief, hSDH variants in the pET28a plasmid was transformed into BL21 (DE3) for expression. The cells were grown overnight at 37 °C in 5 mL of TB media with 50 μg/mL of kanamycin. The subsequent morning, cultures were inoculated, at a 1:1000 dilution, into 0.5 L of fresh TB media containing 50 μg/mL of kanamycin. Upon reaching an A600 of 0.6 to 0.8, the culture was moved to 25 °C and isopropyl β-D-1-thiogalactopyranoside (IPTG) was added to a final concentration of 1 mM to induce T7 RNA polymerase expression, and subsequently hSDH variant protein expression. After overnight incubation, cells were harvested via centrifugation at 5,500 rpm for 20 minutes. The cell pellet, after removing the supernatant, was resuspended using 25 mL of pET lysis buffer (10 mM NaH2PO4, 30 mM imidazole, 300 mM NaCl, pH 8.0). The cell suspension was then lysed by sonication and cleared by centrifugation at 14,000 rpm for 40 minutes. The supernatant from this centrifugation step was then filtered using a 0.22 μm membrane. The clarified supernatant was then applied to 1 mL of nickel-nitrotriacetic acid (Ni-NTA) resin that had been pre-equilibrated with 20 mL of pET lysis buffer. The resin was washed with 20 mL (20 column volumes) of pET lysis buffer. Afterward, the resin was incubated with 3 mL of pET elution buffer (10 mM NaH2POd4, 250 mM imidazole, 300 mM NaCl, pH 8.0), equilibrated for 5 minutes, and then eluted. The elution step was then repeated with 2 ml of extra elution buffer to increase recovery. […] Purity of the proteins were analyzed via sodium dodecyl sulfate-polyacrylamide gel electrophoresis (SDS-PAGE) on a 4% to 20% pre-cast Tris-Glycine gel run under reducing conditions (2.5% β-Mercaptoethanol (BME). Protein concentration was determined via A280 under denaturing conditions using a calculated extinction coefficient (8280=33960 M^−1 cm^−1) from Geneious software (v. 8.0.5). […]

[2] = molecular target: T2, human serine dehydratase (hSDH) Variant 5 (I13T, S26N, R51H, I96T, D114E, G129D, K221R, A222G, W157R, D261L, L112S), SEQ ID NO: 6 (Homo sapiens, UniProt P20132, A222G/D114E/D261L/G129D/I13T/I96T/K221R/L112S/R51H/S26N/W157R); test: MBTH assay, kcat/Km of purified hSDH Variant 5; conditions: role: substrate; threonine 1-100 mM, 1-2 μM enzyme, 37 °C, 20 seconds
T2 sequence (P20132 1-328 I13T/S26N/R51H/I96T/L112S/D114E/G129D/W157R/K221R/A222G/D261L): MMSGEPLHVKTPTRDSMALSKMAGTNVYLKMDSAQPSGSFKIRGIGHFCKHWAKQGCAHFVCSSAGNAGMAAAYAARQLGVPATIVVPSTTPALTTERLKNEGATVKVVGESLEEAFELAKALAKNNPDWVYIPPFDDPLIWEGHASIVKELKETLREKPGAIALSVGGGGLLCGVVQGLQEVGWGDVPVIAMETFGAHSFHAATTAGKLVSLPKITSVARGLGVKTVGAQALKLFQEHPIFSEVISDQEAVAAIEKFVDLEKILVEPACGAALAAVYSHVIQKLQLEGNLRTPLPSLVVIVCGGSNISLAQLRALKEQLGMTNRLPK
Description: as §1, with “minutes.” for “minutes. The supernatant from this centrifugation step was then filtered using a 0.22 μm membrane. The clarified supernatant was then applied to 1 mL of nickel-nitrotriacetic acid (Ni-NTA) resin that had been pre-equilibrated with 20 mL of pET lysis buffer. The resin was washed with 20 mL (20 column volumes) of pET lysis buffer. Afterward, the resin was incubated with 3 mL of pET elution buffer (10 mM NaH2POd4, 250 mM imidazole, 300 mM NaCl, pH 8.0), equilibrated for 5 minutes, and then eluted. The elution step was then repeated with 2 ml of extra elution buffer to increase recovery.”

[3] = molecular target: T3, human serine dehydratase (hSDH) Variant 1 (K221F, A222S), SEQ ID NO: 2 (Homo sapiens, UniProt P20132, A222S/K221F); test: MBTH assay, kcat/Km of purified hSDH Variant 1; conditions: role: substrate; threonine 1-100 mM, 1-2 μM enzyme, 37 °C, 20 seconds
T3 construct: hexahistidine (N); made in house; host or cells: E. coli BL21 (DE3), pET28a
T3 sequence (P20132 1-328 K221F/A222S): T1 sequence (P20132 1-328) with K221F, A222S
Description: as §1, with “minutes.” for “minutes. The supernatant from this centrifugation step was then filtered using a 0.22 μm membrane. The clarified supernatant was then applied to 1 mL of nickel-nitrotriacetic acid (Ni-NTA) resin that had been pre-equilibrated with 20 mL of pET lysis buffer. The resin was washed with 20 mL (20 column volumes) of pET lysis buffer. Afterward, the resin was incubated with 3 mL of pET elution buffer (10 mM NaH2POd4, 250 mM imidazole, 300 mM NaCl, pH 8.0), equilibrated for 5 minutes, and then eluted. The elution step was then repeated with 2 ml of extra elution buffer to increase recovery.”

[4] = molecular target: T4, human serine dehydratase (hSDH) Variant 3 (S26N, R51H, S63P, M70I, L94P, G129D, A204S, K221R, A222S, L112S), SEQ ID NO: 4 (Homo sapiens, UniProt P20132, A204S/A222S/G129D/K221R/L112S/L94P/M70I/R51H/S26N/S63P); test: MBTH assay, kcat/Km of purified hSDH Variant 3; conditions: role: substrate; threonine 1-100 mM, 1-2 μM enzyme, 37 °C, 20 seconds
T4 sequence (P20132 1-328 S26N/R51H/S63P/M70I/L94P/L112S/G129D/A204S/K221R/A222S): T1 sequence (P20132 1-328) with S26N, R51H, S63P, M70I, L94P, L112S, G129D, A204S, K221R, A222S
Description: as §1, with “minutes.” for “minutes. The supernatant from this centrifugation step was then filtered using a 0.22 μm membrane. The clarified supernatant was then applied to 1 mL of nickel-nitrotriacetic acid (Ni-NTA) resin that had been pre-equilibrated with 20 mL of pET lysis buffer. The resin was washed with 20 mL (20 column volumes) of pET lysis buffer. Afterward, the resin was incubated with 3 mL of pET elution buffer (10 mM NaH2POd4, 250 mM imidazole, 300 mM NaCl, pH 8.0), equilibrated for 5 minutes, and then eluted. The elution step was then repeated with 2 ml of extra elution buffer to increase recovery.”

[5] = molecular target: T5, human serine dehydratase (hSDH) Variant 4 (I13T, S26N, R51H, I96T, D114E, G129D, K221R, A222S, W157R, D261L, L112S), SEQ ID NO: 5 (Homo sapiens, UniProt P20132, A222S/D114E/D261L/G129D/I13T/I96T/K221R/L112S/R51H/S26N/W157R); test: MBTH assay, kcat/Km of purified hSDH Variant 4; conditions: role: substrate; threonine 1-100 mM, 1-2 μM enzyme, 37 °C, 20 seconds
T5 sequence (P20132 1-328 I13T/S26N/R51H/I96T/L112S/D114E/G129D/W157R/K221R/A222S/D261L): T2 sequence (P20132 1-328 I13T/S26N/R51H/I96T/L112S/D114E/G129D/W157R/K221R/A222G/D261L) with G222S
Description: as §1, with “minutes.” for “minutes. The supernatant from this centrifugation step was then filtered using a 0.22 μm membrane. The clarified supernatant was then applied to 1 mL of nickel-nitrotriacetic acid (Ni-NTA) resin that had been pre-equilibrated with 20 mL of pET lysis buffer. The resin was washed with 20 mL (20 column volumes) of pET lysis buffer. Afterward, the resin was incubated with 3 mL of pET elution buffer (10 mM NaH2POd4, 250 mM imidazole, 300 mM NaCl, pH 8.0), equilibrated for 5 minutes, and then eluted. The elution step was then repeated with 2 ml of extra elution buffer to increase recovery.”

[6] = molecular target: T6, human serine dehydratase (hSDH) Variant 2 (S26N, R51H, S63P, M70I, L94P, G129D, A204S, K221R, A222S), SEQ ID NO: 3 (Homo sapiens, UniProt P20132, A204S/A222S/G129D/K221R/L94P/M70I/R51H/S26N/S63P); test: MBTH assay, kcat/Km of purified hSDH Variant 2; conditions: role: substrate; threonine 1-100 mM, 1-2 μM enzyme, 37 °C, 20 seconds
T6 sequence (P20132 1-328 S26N/R51H/S63P/M70I/L94P/G129D/A204S/K221R/A222S): T1 sequence (P20132 1-328) with S26N, R51H, S63P, M70I, L94P, G129D, A204S, K221R, A222S
Description: as §1, with “minutes.” for “minutes. The supernatant from this centrifugation step was then filtered using a 0.22 μm membrane. The clarified supernatant was then applied to 1 mL of nickel-nitrotriacetic acid (Ni-NTA) resin that had been pre-equilibrated with 20 mL of pET lysis buffer. The resin was washed with 20 mL (20 column volumes) of pET lysis buffer. Afterward, the resin was incubated with 3 mL of pET elution buffer (10 mM NaH2POd4, 250 mM imidazole, 300 mM NaCl, pH 8.0), equilibrated for 5 minutes, and then eluted. The elution step was then repeated with 2 ml of extra elution buffer to increase recovery.”

## N[C@@H](CO)C(=O)O [Serine, L-serine]
[1]; irreversible deamination of L-serine to pyruvate
  kcat/KM (L-serine to pyruvate): ~ 0.6 s^−1 mM^−1

## C[C@@H](O)[C@H](N)C(=O)O [Threonine, L-threonine]
[2]
  Kcat /Km (Threonine): 1700 ± 100 M⁻¹ s⁻¹
[3]
  Kcat /Km (Threonine): 3800 ± 300 M⁻¹ s⁻¹
[1]; irreversible deamination of L-threonine to α-ketobutyrate
  kcat/KM (L-threonine to α-ketobutyrate): ~ 1.1 s^−1 mM^−1
[1]; threonine 1-100 mM, 1-2 μM enzyme, 37 °C, 20 seconds
  Kcat /Km (Threonine): 1100 ± 50 M⁻¹ s⁻¹
[4]
  Kcat /Km (Threonine): 2800 ± 200 M⁻¹ s⁻¹
[5]
  Kcat /Km (Threonine): 6800 ± 700 M⁻¹ s⁻¹
[6]
  Kcat /Km (Threonine): 2000 ± 50 M⁻¹ s⁻¹
